This is an account of results in ChEMBL document CHEMBL1150019, “Synthesis and antitumor activity of novel cyclopropapyrroloindole (CPI) derivatives bearing bis(methoxycarbonyl) groups” (Bioorg Med Chem Lett, 1997).

One test relates to P388. The test is described as follows: Tested in vitro for cytotoxicity as concentration required to inhibit 50 percent growth of P388 murine leukemia cells. The test is classed as functional, cell-based. To be noted: Mus musculus.
The subject of test [1] is Mus musculus. Description: In vivo antitumor activity against P388 murine leukemia as percentage increase in life span as compared with the untreated at a dose of 0.125 mg/kg administered intraperitoneally. In kind it is functional. To be noted: P388, ip, route intraperitoneal.
Test [2] concerns Mus musculus. The test is described as follows: In vivo antitumor activity against P388 murine leukemia as percentage increase in life span as compared with the untreated at a dose of 0.063 mg/kg administered intraperitoneally. The test is classed as functional. The conditions noted are these: P388, ip, route intraperitoneal.
Test [3] deals with Mus musculus. The test is described as follows: In vivo antitumor activity against P388 murine leukemia as percentage increase in life span as compared with the untreated at a dose of 1 mg/kg administered intraperitoneally. In kind it is functional. To be noted: P388, ip, route intraperitoneal.
Test [4] has as its system Mus musculus. Description: In vivo antitumor activity against P388 murine leukemia as percentage increase in life span as compared with the untreated at a dose of 0.5 mg/kg administered intraperitoneally. To be noted: P388, ip, route intraperitoneal. The test is classed as functional.
Test [5] relates to Mus musculus. The test is described as follows: In vivo antitumor activity against P388 murine leukemia as percentage increase in life span as compared with the untreated at a dose of 0.25 mg/kg administered intraperitoneally. The test is classed as functional. The conditions noted are these: P388, ip, route intraperitoneal.
Test [6] has as its system Mus musculus. The test is described as follows: In vivo antitumor activity against P388 murine leukemia as percentage increase in life span as compared with the untreated at a dose of 0.625 mg/kg administered intraperitoneally. In kind it is functional. To be noted: P388, ip, route intraperitoneal.

Structures are written as SMILES. In brackets after ≈: the same amount, converted by molar mass.

For orientation: IC50 means the concentration needed to halve the response being measured. A lower IC50 goes with higher potency. For orientation: ILS means how much longer treated animals lived than controls. Read a low ILS as a small benefit in survival. In the case of `COC(=O)c1[nH]c2c(c1C(=O)OC)C13CC1CN(C(=O)c1cc4cc(OC)ccc4[nH]1)C3=CC2=O` (stereo not drawn), in the test with P388, inhibition was half-maximal at 0.63 ng/mL (≈ 1.33 nM) (IC50). This compound also yielded an increase in life span (ILS) at 0.125 mg/kg with Mus musculus [1] of 49%.

Regarding `COC(=O)c1[nH]c2c(c1C(=O)OC)C13CC1CN(C(=O)c1cc4cc(OC)c(OC)c(OC)c4[nH]1)C3=CC2=O` (stereo not drawn), in the test on P388, half-maximal inhibition (IC50) was put at 0.74 ng/mL (≈ 1.38 nM). In the test on Mus musculus [2], the ILS at 0.063 mg/kg was 43%.

With `COC(=O)c1[nH]c2c(O)cc3c(c2c1C(=O)OC)C(CCl)CN3C(=O)c1cc2cc(OC)ccc2[nH]1` (stereo not drawn), the ILS at 1 mg/kg with Mus musculus [3] was 43%. The compound also returned an IC50 in the test with P388 of 0.27 ng/mL (≈ 0.527 nM).

In the case of `COC(=O)c1[nH]c2c(O)cc3c(c2c1C(=O)OC)C(CCl)CN3C(=O)c1cc2cc(NC(=O)c3cc4ccccc4[nH]3)ccc2[nH]1` (stereo not drawn), in the test with P388, half-maximal inhibition (IC50) required 0.24 ng/mL (≈ 0.375 nM). In the test with Mus musculus [4], the ILS at 0.5 mg/kg amounted to 90%.

The compound `COC(=O)c1c(C)[nH]c2c(O)cc3c(c12)[C@H](CCl)CN3C(=O)c1cc2cc(OC)c(OC)c(OC)c2[nH]1` returned an ILS at 0.25 mg/kg in the test with Mus musculus [5] of 74%. The IC50 in the test with P388 came out at 0.22 ng/mL (≈ 0.417 nM).

With `COC(=O)c1[nH]c2c(c1C(=O)OC)C13CC1CN(C(=O)c1cc4cc(NC(=O)c5cc6ccccc6o5)ccc4[nH]1)C3=CC2=O` (stereo not drawn), the ILS at 0.125 mg/kg in the test on Mus musculus [1] was determined as 79%.

On to `COC(=O)c1[nH]c2c(O)cc3c(c2c1C(=O)OC)C(CCl)CN3C(=O)c1cc2cc(OC)c(OC)c(OC)c2[nH]1` (stereo not drawn), for which the ILS at 1 mg/kg with Mus musculus [3] turned out to be 73%. The compound also had a half-inhibitory concentration (IC50) in the test on P388 of 0.31 ng/mL (≈ 0.542 nM).

Consider `COC(=O)c1[nH]c2c(O)cc3c(c2c1C(=O)OC)C(CCl)CN3C(=O)c1cc2cc(NC(=O)c3cc4ccccc4o3)ccc2[nH]1` (stereo not drawn), for which, in the test on Mus musculus [6], the ILS at 0.625 mg/kg came out at 115%. The compound further yielded an IC50 with P388 of 0.32 ng/mL (≈ 0.499 nM).

As for `COC(=O)c1[nH]c2c(c1C(=O)OC)C13CC1CN(C(=O)c1cc4cc(NC(=O)c5cc6ccccc6[nH]5)ccc4[nH]1)C3=CC2=O` (stereo not drawn), the increase in lifespan (ILS) at 0.125 mg/kg with Mus musculus [1] was found to be 102%.

`COC(=O)c1c(C)[nH]c2c1[C@@]13CC1CN(C(=O)c1cc4cc(OC)c(OC)c(OC)c4[nH]1)C3=CC2=O` (mixture of isomers) displayed an IC50 with P388 of 0.34 ng/mL. The compound further registered an increase in life span (ILS) at 0.125 mg/kg in the test with Mus musculus [1] of 80%.
